For 3 compounds, IC50 results are on record in patent EP4653444A1, “FUSED TRICYCLIC COMPOUND AS KINASE INHIBITOR” (Hangzhou Innogate Pharma Co., Ltd., priority 2023, dated 2024).

The target in assay [1] is CDK7/CycH/MAT1 kinase (Homo sapiens, UniProt P50613). The assay can be described thus: CDK7 kinase activity inhibition assay (ADP-Glo). In kind it is biochemical. The procedure:
Measure compound inhibitory activity against CDK7/CycH/MAT1 kinase using ADP-Glo assay. 1× kinase reaction buffer was prepared (working concentrations: HEPES 50 mM, MgCl2 10 mM, Brij35 0.01%, DTT 2 mM). The kinase reaction conditions were as follows: Kinase concentration: 3.5 ng/µL; Substrate mixture working concentrations: ATP 30 µM, CDK substrate 0.1 mg/ mL. Compounds were serially diluted in DMSO and shaken on an orbital shaker for 20 minutes. 2× kinase solution was prepared using 1× kinase buffer. 1 µL of compound solution was transferred to a 384-well plate. 2 µL of kinase solution was added to each well of the reaction plate. The plate was sealed with adhesive film, centrifuged at 1000 rpm for 60 seconds, and incubated at 25°C for 10 minutes. 4× ATP&substrate mixture was prepared using 1× kinase buffer. 1 µL of 4× ATP&substrate mixture was added to the reaction plate. The plate was sealed with adhesive film, centrifuged at 1000 rpm for 60 seconds, and incubated at 25°C for 60 minutes. 4 µL of ADP-Glo reagent was transferred to the 384-well reaction plate, centrifuged at 1000 rpm for 1 minute, and incubated at 25°C for 40 minutes. 8 µL of Detection solution was transferred to the 384-well reaction plate, centrifuged at 1000 rpm for 1 minute, and incubated at 25°C for 40 minutes. Relative luminescence units (RLU) were measured using a BMG microplate reader, with signal intensity representing kinase activity level. The inhibition percentage was calculated as follows: % inhibition = 100% - [(Compound RLU - Positive Control RLU)/(Negative Control RLU - Positive Control RLU)] × 100%. The IC50 values (half-maximal inhibitory concentration) of compounds were determined by fitting the data to the following nonlinear regression equation using GraphPad Prism 7.0 software: Y = Bottom + (Top - Bottom)/(1 + 10^((LogIC50 - X) × Hill Slope)), where: X = log(compound concentration), Y = % inhibition.
On the technique in general: ADP-Glo turns the ADP formed in a reaction into a luminescent signal.

The target in assay [2] is HPK1 kinase (Homo sapiens, UniProt Q92918). The assay can be described thus: HPK1 kinase activity inhibition assay (Mobility shift assay). In kind it is biochemical. How it is done:
Measure compound inhibitory activity against HPK1 kinase using Mobility shift assay. Compounds were dissolved in 100% DMSO to prepare 10 mM stock solutions. 1× Kinase buffer was prepared. Test compounds were serially diluted in 5-fold gradients, and 250 nL of 100× final concentration compounds were transferred to destination plate 3573 using an Echo 550 liquid handler. A 2.5× final concentration kinase solution was prepared in 1× Kinase Buffer. 10 µL of the 2.5× kinase solution was added to both compound wells and positive control wells, while 10 µL of 1× Kinase buffer was added to negative control wells. The plate was centrifuged at 1000 rpm for 30 seconds, mixed by orbital shaking, and incubated at room temperature for 10 minutes. A 5/3× final concentration mixture of ATP and Kinase substrate 25 was prepared in 1× Kinase buffer. 15 µL of the 5/3× ATP/substrate mixture was added to initiate the reaction. The 384-well plate was centrifuged at 1000 rpm for 30 seconds, mixed by shaking, and incubated at room temperature for 120 minutes. The kinase reaction was terminated by adding 30 µL stop solution, followed by centrifugation at 1000 rpm for 30 seconds and mixing. Conversion rates were measured using a Caliper EZ Reader. The inhibition percentage was calculated as: %Inhibition = (Conversion%_max - Conversion%_sample)/(Conversion%_max - Conversion%_min) × 100. Where Conversion%_sample: Conversion rate reading of test samples; Conversion%_min: Mean value of negative control wells (representing conversion rate without enzyme activity); Conversion%_max: Mean value of positive control wells (representing conversion rate without compound inhibition). Dose-response curves were plotted with log(concentration) as the X-axis and percentage inhibition as the Y-axis. Curve fitting was performed using GraphPad Prism 5 software with the "log(inhibitor) vs. response - Variable slope" model to derive IC50 values for each compound's enzyme inhibitory activity. The fitting formula was: Y = Bottom + (Top - Bottom)/(1 + 10^((LogIC50 - X) × HillSlope)).

Setting [3] is: Table 4, ATP 30 µM, read-out: CDK7 (IC50).

Like-named read-outs stand apart in the source and are kept apart here. Where only a bound is given, the exact number is not on record here.

CDK7/CycH/MAT1 kinase, sequence (P50613 whole entry, species assumed): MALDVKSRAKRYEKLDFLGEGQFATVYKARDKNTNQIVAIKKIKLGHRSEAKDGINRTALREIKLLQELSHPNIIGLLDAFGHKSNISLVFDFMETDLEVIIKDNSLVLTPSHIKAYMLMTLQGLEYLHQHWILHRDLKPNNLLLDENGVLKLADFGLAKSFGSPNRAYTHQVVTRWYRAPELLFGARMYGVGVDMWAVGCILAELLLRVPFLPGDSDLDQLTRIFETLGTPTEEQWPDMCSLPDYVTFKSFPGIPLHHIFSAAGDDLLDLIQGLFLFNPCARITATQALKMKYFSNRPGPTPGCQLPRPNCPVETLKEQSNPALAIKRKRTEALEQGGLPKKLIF
CDK7/CycH/MAT1 kinase, sequence (P51946 whole entry partner, species assumed): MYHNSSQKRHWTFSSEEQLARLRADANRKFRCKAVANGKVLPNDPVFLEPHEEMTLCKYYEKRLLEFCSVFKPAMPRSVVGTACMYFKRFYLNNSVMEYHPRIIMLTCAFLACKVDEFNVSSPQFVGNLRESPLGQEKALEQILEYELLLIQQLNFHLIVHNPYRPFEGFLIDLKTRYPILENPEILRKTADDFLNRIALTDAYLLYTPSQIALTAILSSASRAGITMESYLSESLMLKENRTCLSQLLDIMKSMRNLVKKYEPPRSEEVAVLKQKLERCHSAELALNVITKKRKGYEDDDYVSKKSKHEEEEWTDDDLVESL
CDK7/CycH/MAT1 kinase, sequence (P51948 whole entry partner, species assumed): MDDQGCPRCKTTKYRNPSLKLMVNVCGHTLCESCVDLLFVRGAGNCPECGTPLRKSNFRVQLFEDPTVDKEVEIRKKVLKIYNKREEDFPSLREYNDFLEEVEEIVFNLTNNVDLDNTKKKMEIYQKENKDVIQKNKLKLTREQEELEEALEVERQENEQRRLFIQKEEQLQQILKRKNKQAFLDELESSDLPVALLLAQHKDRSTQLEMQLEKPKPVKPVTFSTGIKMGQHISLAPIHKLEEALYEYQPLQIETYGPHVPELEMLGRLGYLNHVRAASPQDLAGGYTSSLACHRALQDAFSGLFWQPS
HPK1 kinase, sequence (Q92918 whole entry): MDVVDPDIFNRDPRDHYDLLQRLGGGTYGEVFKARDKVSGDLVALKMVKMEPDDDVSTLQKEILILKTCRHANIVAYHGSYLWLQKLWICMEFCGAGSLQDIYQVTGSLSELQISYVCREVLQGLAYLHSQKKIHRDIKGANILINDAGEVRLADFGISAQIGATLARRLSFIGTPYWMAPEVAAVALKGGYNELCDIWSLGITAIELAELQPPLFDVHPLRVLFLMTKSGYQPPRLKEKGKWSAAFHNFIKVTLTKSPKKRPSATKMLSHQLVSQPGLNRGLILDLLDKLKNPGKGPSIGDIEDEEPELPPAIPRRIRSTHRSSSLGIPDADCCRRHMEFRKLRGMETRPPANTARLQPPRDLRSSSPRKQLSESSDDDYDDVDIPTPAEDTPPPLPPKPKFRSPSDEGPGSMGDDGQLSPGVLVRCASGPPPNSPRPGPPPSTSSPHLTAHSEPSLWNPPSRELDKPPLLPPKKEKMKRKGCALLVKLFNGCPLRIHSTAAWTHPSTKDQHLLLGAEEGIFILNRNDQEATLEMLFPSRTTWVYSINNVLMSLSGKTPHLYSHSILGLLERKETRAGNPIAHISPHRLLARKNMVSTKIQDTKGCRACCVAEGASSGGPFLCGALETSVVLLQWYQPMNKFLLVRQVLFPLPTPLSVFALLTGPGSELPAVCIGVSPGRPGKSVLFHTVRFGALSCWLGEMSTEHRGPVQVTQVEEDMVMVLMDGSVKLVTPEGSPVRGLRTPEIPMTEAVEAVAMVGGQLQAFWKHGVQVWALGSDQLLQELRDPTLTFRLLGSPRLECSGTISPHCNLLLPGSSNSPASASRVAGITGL

One may read the IC50 as the concentration at which inhibition is half-maximal. Turning to `CNC(=O)c1ccccc1Nc1cc(Nc2cc3c(cc2OC)N2CCN(C4CCN(C)CC4)C[C@@H]2CO3)ncc1C(F)(F)F` [Compound D2R], the 50% inhibitory concentration (IC50) in assay [1] was < 15 nM; in assay [2] it was < 30 nM.

With `CNC(=O)c1ccccc1Nc1cc(Nc2cc3c(cc2OC)N2CCN(C4CCN(C)CC4)C[C@H]2CO3)ncc1C(F)(F)F` [Compound D2S], the IC50 in assay [1] (setting [3]) was < 15 nM; in assay [2] (Table 4, read-out: HPK1 (IC50)) it was < 30 nM.

For `CNC(=O)c1ccccc1Nc1cc(Nc2cc3c(cc2OC)N2CCN(C4CN(C)C4)C[C@H]2CO3)ncc1C(F)(F)F` [Compound D4S], the concentration for half-maximal inhibition (IC50) in assay [1] (setting [3]) is < 10 nM; in assay [2] (Table 4, read-out: HPK1 (IC50)), < 20 nM.
